Conditions: pH 5.5
Experimental: The fraction of the dose precipitating in the form of free base during dissolution is dependent on experimental factors such as stirring speed, which determines mixing kinetics of the highly supersaturated microenvironment solution into the bulk of the dissolution medium.
The dissolution studies were conducted using USP apparatus 2 in acetate buffer, pH 5.5 and 37° C.
The pH of the dissolution medium remained substantially constant at ˜5.5 until the end of the test.

- concentration in the dissolution medium relative to saturation solubility at this pH: ~10 fold
SMILES: CN(C)Cc1nccn1-c1ccc(NC(=O)c2cc(C(F)(F)F)nn2-c2ccc3onc(N)c3c2)c(F)c1.Cl [Factor Xa inhibitor]

Reference: patent US20050059719A1 (priority 2003, published 2005)
